Consider 33 compounds from patent US20250115569A1, “SULFONAMIDE COMPOUNDS FOR THE TREATMENT OF NEUROLOGICAL CONDITIONS” (LARIO THERAPEUTICS LIMITED, priority 2021, published 2025).

In this assay the target is Cav2.3 (Homo sapiens, UniProt Q15878). Kind of assay: Human Cav2.3 channel calcium-influx assay. The assay is classed as cell-based. The note with it: Fluo8 fluorescence, HEK-293 T-Rex/Kir2.1/Cav2.3e cells, without pluronic acid, read-out: Cav2.3 (pIC50) (converted). The method, boiled down: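 HEK-293 T-Rex/Kir2.1 cells with doxycycline (0.2 μg/mL)-inducible Cav2.3e plus Cavβ4-α2δ1, loaded with Fluo8 NW in 0 mM K+ Tyrode's. Compounds (8 points, top 30 μM, half-log, 0.3% final DMSO, n=4) preincubated 3 min at RT, then depolarized with 20 mM KCl/2 mM CaCl2 (final); fluorescence read 130 s.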
Cav2.3, sequence (Q15878 whole entry, looked up): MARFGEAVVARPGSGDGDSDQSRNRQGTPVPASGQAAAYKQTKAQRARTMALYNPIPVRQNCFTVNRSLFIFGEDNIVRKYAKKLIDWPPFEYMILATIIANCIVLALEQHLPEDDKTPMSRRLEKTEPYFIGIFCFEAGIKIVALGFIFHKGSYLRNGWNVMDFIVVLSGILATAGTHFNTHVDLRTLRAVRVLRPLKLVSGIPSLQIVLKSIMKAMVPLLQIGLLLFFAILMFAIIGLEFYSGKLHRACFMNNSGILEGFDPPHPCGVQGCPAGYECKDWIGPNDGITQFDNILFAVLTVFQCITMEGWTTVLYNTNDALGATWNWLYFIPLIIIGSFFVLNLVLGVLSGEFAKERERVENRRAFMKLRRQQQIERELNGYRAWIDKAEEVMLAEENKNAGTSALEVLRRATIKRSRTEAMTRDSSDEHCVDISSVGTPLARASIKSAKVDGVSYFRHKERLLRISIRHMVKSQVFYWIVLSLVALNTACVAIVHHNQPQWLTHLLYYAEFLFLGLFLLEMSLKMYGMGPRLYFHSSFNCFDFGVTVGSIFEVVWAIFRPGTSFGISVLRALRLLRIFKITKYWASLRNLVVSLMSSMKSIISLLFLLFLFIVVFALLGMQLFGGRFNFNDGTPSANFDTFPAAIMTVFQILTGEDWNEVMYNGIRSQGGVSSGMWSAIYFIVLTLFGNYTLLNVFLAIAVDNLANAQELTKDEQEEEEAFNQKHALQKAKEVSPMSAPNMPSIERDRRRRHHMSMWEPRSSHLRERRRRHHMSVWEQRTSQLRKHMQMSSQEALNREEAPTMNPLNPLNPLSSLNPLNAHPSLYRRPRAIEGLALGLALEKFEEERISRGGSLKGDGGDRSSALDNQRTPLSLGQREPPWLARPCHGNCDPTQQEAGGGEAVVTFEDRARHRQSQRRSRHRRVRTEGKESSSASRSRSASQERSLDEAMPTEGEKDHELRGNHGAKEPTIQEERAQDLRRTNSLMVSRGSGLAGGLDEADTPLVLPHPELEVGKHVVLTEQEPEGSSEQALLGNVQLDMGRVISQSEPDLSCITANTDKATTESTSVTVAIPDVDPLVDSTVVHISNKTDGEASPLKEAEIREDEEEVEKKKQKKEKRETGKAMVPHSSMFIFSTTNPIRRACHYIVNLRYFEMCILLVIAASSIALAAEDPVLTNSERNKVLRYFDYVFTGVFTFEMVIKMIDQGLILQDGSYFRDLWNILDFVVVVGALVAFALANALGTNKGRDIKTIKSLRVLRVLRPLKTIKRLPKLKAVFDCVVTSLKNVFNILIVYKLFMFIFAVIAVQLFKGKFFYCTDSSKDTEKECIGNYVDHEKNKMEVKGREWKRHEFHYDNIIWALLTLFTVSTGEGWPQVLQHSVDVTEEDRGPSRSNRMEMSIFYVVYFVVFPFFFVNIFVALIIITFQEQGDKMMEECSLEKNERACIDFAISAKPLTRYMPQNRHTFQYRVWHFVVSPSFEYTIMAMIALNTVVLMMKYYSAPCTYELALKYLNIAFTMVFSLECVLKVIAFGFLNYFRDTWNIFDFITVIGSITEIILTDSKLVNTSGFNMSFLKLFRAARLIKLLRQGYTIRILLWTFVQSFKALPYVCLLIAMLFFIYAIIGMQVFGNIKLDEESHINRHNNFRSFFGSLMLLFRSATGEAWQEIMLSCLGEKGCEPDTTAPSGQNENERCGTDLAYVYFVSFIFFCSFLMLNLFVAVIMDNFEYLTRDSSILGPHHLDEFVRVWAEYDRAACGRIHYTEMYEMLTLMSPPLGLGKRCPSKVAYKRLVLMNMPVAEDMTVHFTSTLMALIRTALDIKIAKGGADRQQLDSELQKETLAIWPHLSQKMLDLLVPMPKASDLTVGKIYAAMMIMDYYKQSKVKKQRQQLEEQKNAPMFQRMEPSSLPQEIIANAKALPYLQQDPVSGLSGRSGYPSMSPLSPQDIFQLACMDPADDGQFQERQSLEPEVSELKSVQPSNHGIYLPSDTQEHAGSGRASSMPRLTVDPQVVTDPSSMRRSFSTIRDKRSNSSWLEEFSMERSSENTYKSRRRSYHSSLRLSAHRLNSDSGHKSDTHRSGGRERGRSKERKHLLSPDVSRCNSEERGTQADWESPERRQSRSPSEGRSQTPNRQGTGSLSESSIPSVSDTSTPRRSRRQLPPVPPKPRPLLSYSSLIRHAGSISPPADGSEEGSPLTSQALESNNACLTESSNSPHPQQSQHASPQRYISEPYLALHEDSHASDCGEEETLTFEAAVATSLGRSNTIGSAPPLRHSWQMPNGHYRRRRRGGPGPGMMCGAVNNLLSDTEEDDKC
With `CCN([C@H](c1ccc(F)cc1)C(F)(F)F)S(=O)(=O)c1nc2ccccn2n1` [Example 153, (R)—N-ethyl-N-(2,2,2-trifluoro-1-(4-fluorophenyl)ethyl)-[1,2,4]triazolo[1,5-a]pyridine-2-sulfonamide], the IC50 was 1580 nM.

In the case of `CCN([C@@H](c1ccc(F)cc1)C(F)(F)F)S(=O)(=O)c1ccc(=O)n(C)c1` [Example 102, (S)—N-ethyl-1-methyl-6-oxo-N-(2,2,2-trifluoro-1-(4-fluorophenyl)ethyl)-1,6-dihydropyridine-3-sulfonamide], the IC50 is 6760 nM.

In the case of `CCN([C@H](c1ccc(F)cc1)C(F)(F)F)S(=O)(=O)c1cnc2nc[nH]c2c1` [Example 156, (R)—N-ethyl-N-(2,2,2-trifluoro-1-(4-fluorophenyl)ethyl)-1H-imidazo[4,5-b]pyridine-6-sulfonamide], the IC50 is 204 nM.

`CCN(C(c1ccc(F)cc1)C(F)(F)F)S(=O)(=O)c1cncc(C(N)=O)c1` (stereo in doubt) [Example 52, (S)-5-(N-ethyl-N-(2,2,2-trifluoro-1-(4-fluorophenyl)ethyl)sulfamoyl)nicotinamide]: the IC50 was 95.5 nM.

For the compound `CCN([C@H](c1ccc(F)cc1)C(F)(F)F)S(=O)(=O)c1nc2cnccn2n1` [Example 144, (R)—N-ethyl-N-(2,2,2-trifluoro-1-(4-fluorophenyl)ethyl)-[1,2,4]triazolo[1,5-a]pyrazine-2-sulfonamide], the IC50 is 1780 nM.

Take `CN([C@@H](c1ccc(F)cc1)C(F)(F)F)S(=O)(=O)c1ccc(F)s1` (stereo in doubt) [Example 18, 5-fluoro-N-methyl-N-(2,2,2-trifluoro-1-(4-fluorophenyl)ethyl)thiophene-2-sulfonamide]: the IC50 was 11700 nM.

`Cc1cc([C@@H](N(C)S(=O)(=O)c2cncc(C#N)c2)C(F)(F)F)ccc1C(F)(F)F` [Example 269, (R)-5-cyano-N-methyl-N-(2,2,2-trifluoro-1-(3-methyl-4-(trifluoromethyl)phenyl)ethyl)pyridine-3-sulfonamide]: the IC50 is 302 nM.

As to `CN([C@H](c1ccc(Cl)cc1)C(F)(F)F)S(=O)(=O)c1cnc2ncsc2c1` [Example 200, (R)—N-(1-(4-chlorophenyl)-2,2,2-trifluoroethyl)-N-methylthiazolo[4,5-b]pyridine-6-sulfonamide], the IC50 was 282 nM.

For `CN([C@H](c1ccc(Cl)cc1)C(F)(F)F)S(=O)(=O)c1ccc(O)nn1` [Example 208, (R)—N-(1-(4-chlorophenyl)-2,2,2-trifluoroethyl)-6-hydroxy-N-methylpyridazine-3-sulfonamide], the IC50 is 1050 nM.

As for `CCN([C@H](c1ccc(F)cc1)C(F)(F)F)S(=O)(=O)c1cnc2[nH]nnc2c1` [Example 166, (R)—N-ethyl-N-(2,2,2-trifluoro-1-(4-fluorophenyl)ethyl)-1H-[1,2,3]triazolo[4,5-b]pyridine-6-sulfonamide], the IC50 is 794 nM.

As for `CCN(C(c1ccc(F)cc1)C(F)(F)F)S(=O)(=O)c1ccc(C2CNC2)s1` (stereo not drawn) [Example 47, 5-(Azetidin-3-yl)-N-ethyl-N-(2,2,2-trifluoro-1-(4-fluorophenyl)ethyl)thiophene-2-sulfonamide], the IC50 was 501 nM.

`CCN([C@H](c1ccc(C(F)(F)F)cc1)C(F)(F)F)S(=O)(=O)c1cnc2ccccn12` [Example 237, (R)—N-ethyl-N-(2,2,2-trifluoro-1-(4-(trifluoromethyl)phenyl)ethyl)imidazo[1,2-a]pyridine-3-sulfonamide]: the IC50 is 30.2 nM.

For `CCN([C@H](c1ccc(F)cc1)C(F)(F)F)S(=O)(=O)c1ccc2nnc(C)n2n1` [Example 168, (R)—N-ethyl-3-methyl-N-(2,2,2-trifluoro-1-(4-fluorophenyl)ethyl)-[1,2,4]triazolo[4,3-b]pyridazine-6-sulfonamide], the IC50 is 2190 nM.

With `CCN([C@H](c1ccc(C(F)(F)F)c(C)c1)C(F)(F)F)S(=O)(=O)c1cncc(C#N)c1` [Example 268, (R)-5-cyano-N-ethyl-N-(2,2,2-trifluoro-1-(3-methyl-4-(trifluoromethyl)phenyl)ethyl)pyridine-3-sulfonamide], the IC50 was 468 nM.

Turning to `CCN([C@H](c1ccc(F)cc1)C(F)(F)F)S(=O)(=O)c1ccc(=O)n(C)c1` [Example 101, (R)—N-ethyl-1-methyl-6-oxo-N-(2,2,2-trifluoro-1-(4-fluorophenyl)ethyl)-1,6-dihydropyridine-3-sulfonamide], the IC50 is 182 nM.

As for `CCN([C@H](c1ccc(F)cc1)C(F)(F)F)S(=O)(=O)c1ccc2nc(C)c(Cl)n2n1` [Example 157, (R)-3-chloro-N-ethyl-2-methyl-N-(2,2,2-trifluoro-1-(4-fluorophenyl)ethyl)imidazo[1,2-b]pyridazine-6-sulfonamide], the IC50 was 3020 nM.

On to `CN([C@H](c1ccc(F)cc1)C(F)(F)F)S(=O)(=O)c1ccc2nnc(C(F)(F)F)n2n1` [Example 170, (R)—N-methyl-N-(2,2,2-trifluoro-1-(4-fluorophenyl)ethyl)-3-(trifluoromethyl)-[1,2,4]triazolo[4,3-b]pyridazine-6-sulfonamide], for which the IC50 was 13200 nM.

On to `CN([C@@H](c1ccc(C(F)(F)F)cc1)C(F)(F)F)S(=O)(=O)c1cncc(C#N)c1` [Example 69, (S)-5-Cyano-N-methyl-N-(2,2,2-trifluoro-1-(4-(trifluoromethyl)phenyl)ethyl)pyridine-3-sulfonamide], for which the IC50 is 5620 nM.

As to `N#Cc1cncc(S(=O)(=O)N(CCF)C(c2ccc(F)cc2)C(F)(F)F)c1` (stereo not drawn) [Example 64, 5-Cyano-N-(2-fluoroethyl)-N-(2,2,2-trifluoro-1-(4-fluorophenyl)ethyl)pyridine-3-sulfonamide], the IC50 was 178 nM.

`[2H]C([2H])([2H])N([C@H](c1ccc(Cl)cc1)C(F)(F)F)S(=O)(=O)c1cncc(C#N)c1` [Example 227, (R)—N-(1-(4-chlorophenyl)-2,2,2-trifluoroethyl)-5-cyano-N-(methyl-d3)pyridine-3-sulfonamide]: the IC50 is 28.2 nM.

Turning to `Cc1ccc([C@@H](N(C)S(=O)(=O)c2cncc(C#N)c2)C(F)(F)F)cc1` [Example 225, (R)-5-cyano-N-methyl-N-(2,2,2-trifluoro-1-(p-tolyl)ethyl)pyridine-3-sulfonamide], the IC50 was 105 nM.

Regarding `CCN([C@H](c1ccc(F)cc1)C(F)(F)F)S(=O)(=O)c1ccn2nncc2c1` [Example 145, (R)—N-ethyl-N-(2,2,2-trifluoro-1-(4-fluorophenyl)ethyl)-[1,2,3]triazolo[1,5-a]pyridine-5-sulfonamide], the IC50 is 25.1 nM.

Regarding `COc1ccc([C@@H](N(C)S(=O)(=O)C2CCOCC2)C(F)(F)F)cc1` [Example 129, (R)—N-methyl-N-(2,2,2-trifluoro-1-(4-methoxyphenyl)ethyl)tetrahydro-2H-pyran-4-sulfonamide], the IC50 is 1170 nM.

Take `CCN([C@H](c1ccc(F)cc1)C(F)(F)F)S(=O)(=O)c1ccc2sc(N)nc2c1` [Example 155, (R)-2-amino-N-ethyl-N-(2,2,2-trifluoro-1-(4-fluorophenyl)ethyl)benzo[d]thiazole-5-sulfonamide]: the IC50 was 1910 nM.

`CCN([C@@H](c1ccc(OC(F)(F)F)cc1)C(F)(F)F)S(=O)(=O)c1cncc(C#N)c1` [Example 118, (S)-5-Cyano-N-ethyl-N-(2,2,2-trifluoro-1-(4-(trifluoromethoxy)phenyl)ethyl)pyridine-3-sulfonamide]: the IC50 is 5620 nM.

On to `CCN([C@H](c1ccc(F)cc1)C(F)(F)F)S(=O)(=O)c1ccnc2[nH]ccc12` [Example 175, (R)—N-ethyl-N-(2,2,2-trifluoro-1-(4-fluorophenyl)ethyl)-1H-pyrrolo[2,3-b]pyridine-4-sulfonamide], for which the IC50 is 302 nM.

`CCN([C@H](c1ccc(F)cc1)C(F)(F)F)S(=O)(=O)c1cc2cn[nH]c2cn1` [Example 167, (R)—N-ethyl-N-(2,2,2-trifluoro-1-(4-fluorophenyl)ethyl)-1H-pyrazolo[3,4-c]pyridine-5-sulfonamide]: the IC50 was 331 nM.

As to `CN([C@H](c1ccc(C(F)(F)F)cc1)C(F)(F)F)S(=O)(=O)c1cnc2ccccn12` [Example 235, (R)—N-methyl-N-(2,2,2-trifluoro-1-(4-(trifluoromethyl)phenyl)ethyl)imidazo[1,2-a]pyridine-3-sulfonamide], the IC50 is 31.6 nM.

Take `CCN([C@H](c1ccc(OC)cc1)C(F)(F)F)S(=O)(=O)c1cncc(F)c1` [Example 257, (R)—N-ethyl-5-fluoro-N-(2,2,2-trifluoro-1-(4-methoxyphenyl)ethyl)pyridine-3-sulfonamide]: the IC50 is 22.9 nM.

`CCN([C@H](c1ccc(F)cc1)C(F)(F)F)S(=O)(=O)c1ccn2ncnc2c1` [Example 137, (R)—N-ethyl-N-(2,2,2-trifluoro-1-(4-fluorophenyl)ethyl)-[1,2,4]triazolo[1,5-a]pyridine-7-sulfonamide]: the IC50 is 72.4 nM.

Regarding `CN([C@H](c1ccc(Cl)cc1)C(F)(F)F)S(=O)(=O)c1cnc2nsnc2c1` [Example 179, (R)—N-(1-(4-chlorophenyl)-2,2,2-trifluoroethyl)-N-methyl-[1,2,5]thiadiazolo[3,4-b]pyridine-6-sulfonamide], the IC50 was 661 nM.

Regarding `CCN(C(c1ccc(Cl)cc1)C(F)(F)F)S(=O)(=O)c1cncc(C#N)c1` (stereo not drawn) [Example 54, N-(1-(4-chlorophenyl)-2,2,2-trifluoroethyl)-5-cyano-N-ethylpyridine-3-sulfonamide], the IC50 is 37.2 nM.

`CN([C@H](c1ccc(Cl)cc1)C(F)(F)F)S(=O)(=O)c1cnc2ccnn2c1` [Example 201, (R)—N-(1-(4-chlorophenyl)-2,2,2-trifluoroethyl)-N-methylpyrazolo[1,5-a]pyrimidine-6-sulfonamide]: the IC50 was 427 nM.
